From article PMC7144563 (Molecules, 2020)

Method: Cellulose membrane was properly treated and mounted in the Franz diffusion cells (diffusion area 4.9 cm^2, compartment volume 20 mL). The acceptor compartment was filled with PBS pH 7.4 and the donor compartment was filled with 1 mL of the formulation described above (100 μg/mL of the compounds). Permeation studies were conducted under constant stirring (90 rpm) at 37 °C. Samples of 0.5 mL were withdrawn from the acceptor compartment at predetermined time intervals (30 min, 1 h, 2 h, 4 h, 6 h, 8 h) and replaced with fresh and preheated PBS. Experiments were repeated in triplicates for each compound and blank experiments containing only the medium were also performed. The samples were analyzed by HPLC without any previous pretreatment.
Steady state flux (Jss) was calculated from the slope of the linear section of the plot of the amount of permeated compound per unit area (μg/cm^2) against to time. The apparent permeability coefficient (Papp) was calculated using Equation (3), where Cd is the initial concentration of the drug in the donor compartment and Jss is the steady state flux. (3) Papp=Jss/Cd

| SMILES | apparent permeability coefficient (Papp) (pH 7.4) | Papp values compared to the rest of the tested steroids (during the first 4 h (2 h and 4 h) of the in vitro permeability study, considered outlier) |
| --- | --- | --- |
| C[C@]12C=CC(=O)C=C1CC[C@@H]1[C@@H]2C(=O)C[C@@]2(C)[C@H]1CC[C@]2(O)C(=O)CO [COMP 27, Prednisone] | highest |  |
| C[C@]12CCC(=O)C[C@@H]1CC[C@@H]1[C@@H]2CC[C@]2(C)[C@@H](O)CC[C@@H]12 [COMP 3, Androstanolone] |  | significantly higher |
